≈ marks a conversion by molar mass, not a printed value. Read-outs that look alike come from different tables or passages of the source.
Tests used:
[1] = system: influenza virus (strain A/PR/8/34); experiment: inhibition of virus-induced CPE, influenza virus in MDCK cells; format: cell-based; settings: unidentified influenza virus, PR/8, MDCK, read-out: maximum inhibition of the influenza mediated CPE
[2] = system: human respiratory syncytial virus (strain RSVA2); experiment: inhibition of virus-induced CPE, RSVA2 in HEp2 cells (XTT); settings: human respiratory syncytial virus
in vitro [3] = settings: human
[4] = cell viability of uninfected HeLa cells; settings: human
[5] = system: human rhinovirus strain HRV16 strain 11757; experiment: inhibition of virus-induced CPE, human rhinovirus in H1-HeLa cells; format: cell-based; settings: Human rhinovirus sp., 4 hour pretreatment, MOI 0.0005, Lefamulin as acetate
Experimental: (§1) Cell viability determination as well as EC50 and TC50 calculations were performed as described in Examples 6 and 8.

[6] = system: Dengue virus (strain DENV2New Guinea); experiment: inhibition of virus-induced CPE, Dengue virus in Huh7 cells; format: cell-based; settings: Huh-7, 4 h pre-incubation
Experimental: The Dengue virus strain DENV2New Guinea was obtained from ATCC (VR-1584) and was grown in Rhesus monkey kidney cells for the production of stock virus pools.
as §1

in vitro [7] = settings: dog
[8] = system: Measles virus (strain Edmonston); experiment: microbe, parasite or virus in culture; format: cell-based
[9] = system: mice challenged with lipopolysaccharide (LPS); experiment: LPS induced lung neutrophilia model, BALF cell counts (Example 2); settings: 4 h post LPS
MRC-5 cells = settings: for cytotoxic effect on the viability of the cell control: Example 6
[10] = system: alpha coronavirus 229E (HCoV-229E); experiment: inhibition of virus-induced CPE, CoV229E in MRC-5 cells (XTT); format: cell-based; settings: for EC50: Human coronavirus 229E, MOI 0.001, read-out: EC50
Experimental: The antiviral compound Remdesivir served as positive control.
Lefamulin (as acetate) was evaluated using different treatment conditions of 4 h, 1 h or 0 h incubation prior to virus addition and addition 1 h after infection For this particular set of experiments, coronavirus was diluted 1:200 in assay medium and added at 100 μL/well to achieve approximately 90% cell killing in the untreated virus control wells (MOI of 0.001).

HEp2 cells = experiment: cell viability of uninfected HEp2 cells (XTT); settings: Example 8
[11] = system: Zika virus (strain ZIKVPRVABC59); experiment: inhibition of virus-induced CPE, Zika virus in Huh7 cells; format: cell-based; settings: Huh-7, 4 hour pretreatment, MOI 0.001, Lefamulin as acetate
Experimental: The Zika virus strain PRVABC59 obtained from ATCC (catalog VR-1843) […] was grown in Rhesus monkey kidney cells for the production of stock virus pools.
as §1

[12] = cell viability of uninfected Huh7 cells; settings: human
[13] = system: mice challenged with lipopolysaccharide (LPS); experiment: LPS induced lung neutrophilia model, BALF cell counts 4 h post LPS (Example 1)
[14] = system: human respiratory syncytial virus (strain RSVA2); settings: Example 8
[15] = system: influenza A/Puerto Rico/8/34 (H1N1); format: in vivo, BALB/c mice
[16] = system: TNF-α, IL-6, IL-1β, GM-CSF, CXCL1, CXCL2, CCL2, MMP9 in lung homogenate; experiment: LPS induced lung neutrophilia model, marker concentrations in lung homogenate (Example 2)
HeLa cells = experiment: cell viability of uninfected HeLa cells; settings: Example 11
Huh7 cells = experiment: cell viability of uninfected Huh7 cells; settings: Example 12 (Dengue assay)
[17] = Lefamulin 35, 70 and 140 mg/kg SC half an hour prior to IN LPS, vs LPS challenge (p<0.05)
[18] = high dose: 105 mg/kg/day SC in three injections until day 3, then 70 mg/kg twice daily
[19] = high dose, Day 6, vs vehicle treated control
[20] = 10, 30, or 100 mg/kg SC pre-treatment
[21] = 10, 30, or 100 mg/kg SC pre-treatment, 4 h post LPS

Structure (SMILES): C=C[C@]1(C)C[C@@H](OC(=O)CS[C@@H]2CC[C@@H](N)C[C@H]2O)[C@]2(C)C(C)CC[C@]3(CCC(=O)[C@H]32)[C@@H](C)[C@@H]1O (stereo partly drawn) [Lefamulin, 14-O-{[(1R, 2R, 4R)-4-amino-2-hydroxy-cyclohexylsulfanyl]-acetyl}-mutilin]
- inhibition at 5 µM [1]: 18.4%
- EC50 ([2]; HEp-2, Example 8, HEp2 cells, 4 h incubation prior to virus, MOI 0.001, 6 days post-infection, Lefamulin as acetate, Tiamulin as fumarate): 5.34 µM
- EC50 ([2]; HEp-2, Example 9, MOI 0.0004): 2.34 µM
- EC50 ([2]; HEp-2, Example 9, MOI 0.0008): 28.7 µM
- EC50 ([2]; HEp-2, Example 9, MOI 0.001): 32.3 µM
- EC50 ([2]; HEp-2, Example 9, MOI 0.003): > 63.2 µM
- CC50 (in vitro [3]): 24.1 µM
- cytotoxicity (MDCK cells; 50 μM): cytotoxicity was observed
- concentrations cytotoxic to MDCK cells (MDCK cells; Example 15): greater than 23 μM
- CC50 at 6 days [4]: 72.7 µM
- EC50 [5]: 9.34 µM
- EC50 ([6]; MOI 0.001, Lefamulin as acetate): 6.79 µM
- CC50 (in vitro [7]): 23.8 µM
- EC50 ([8]; Measles morbillivirus, HeLa): 0.89 µM
- total cell counts in BALF, significance of change ([9]; 100 mg/kg SC, p<0.05): statistically significant
- total cell counts in BALF ([9]; 10, 30, or 100 mg/kg SC 30 min before LPS): reduced dose-dependently
- lymphocyte cell counts in BALF ([9]; 10, 30 and 100 mg/kg SC): not significantly affected
- macrophage cell counts in BALF ([9]; 10, 30 and 100 mg/kg SC): not significantly affected
- neutrophil cells in BALF ([9]; 10, 30 and 100 mg/kg SC): dose-dependent and significant reduction
- cytotoxic effect on the viability of the cell control (MRC-5 cells; 10 μM): no cytotoxic effect
- cytotoxic effect on the viability of the cell control (MRC-5 cells; 50 μM): cytotoxic effect
- CC50 (MRC-5 cells; human, 6 days): > 50 µM
- reduction of viral CPE ([10]; 10 µM): 91.82%
- reduction of viral CPE ([10]; 1 h, 50 µM): 86.83%
- EC50 ([10]; MRC5, 1 h, Example 7, 1 h post-infection): 15.1 µM
- EC50 ([10]; MRC5, Example 6, MRC-5 cells, 4 h incubation prior to virus, 6 days post-infection, Lefamulin as acetate, Tiamulin as fumarate): 3.87 µM
- EC50 ([10]; MRC5, Example 7, 0 h pretreatment): 3.08 µM
- EC50 ([10]; MRC5, Example 7, 1 h pretreatment): 2.16 µM
- EC50 ([10]; MRC5, Example 7, 4 h pretreatment): 2.18 µM
- cytotoxic effect on the viability of the cell control (HEp2 cells; 10 μM and 50 μM): no cytotoxic effect
- cytotoxic effect on the viability of the cell control (HEp2 cells; 100 μM): cytotoxic effect
- EC50 [11]: 2.78 µM
- CC50 at 6 days ([12]; TC50, Example 12 (Dengue assay)): 23.3 µM
- CC50 at 6 days ([12]; TC50, Example 13 (Zika assay)): 23.4 µM
- neutrophil cell count in BALF [13, 17]: statistically significant reduction
- total cell count in BALF [13, 17]: statistically significant reduction
- cell influx (BALF) ([13]; highest dose of 140 mg/kg SC): Almost complete impairment
- reduction of viral CPE ([14]; 10 μM): 92.17%
- reduction of viral CPE ([14]; 50 μM): 100%
- B cells (BALF) ([15]; Day 6): reduction was only significant at the highest dose
- infiltration of CD4 cells in the lung ([15]; Day 6, both doses tested): decreased
- infiltration of CD8 cells in the lung ([15]; Day 6, both doses tested): decreased
- infiltration of NK cells in the lung ([15]; Day 6, both doses tested): decreased
- neutrophils infiltration (BALF) ([15]; Day 6, both doses tested): significantly decreased
- total immune cell infiltration in the lung (BALF flow cytometry) ([15]; Day 6, both doses tested, p<0.05): significantly decreased
- inflammatory monocyte infiltration in the lung ([15]; Day 6, higher dose): significantly reduced
- lung viral titres (TCID50 on MDCK cells) ([15]; Lefamulin at both doses, Oseltamivir positive control, Day 3 and Day 6, vs vehicle treated control): reduced
- bodyweight ([15]; at the investigated doses (low and high dose SC)): did not have a significant effect
- clinical scores compared to vehicle [15, 18]: increase
- survival compared to vehicle [15, 18]: decrease
- alveolar inflammation (histopathology) [15, 19]: significant reduction
- bronchial degeneration (histopathology) [15, 19]: significant reduction
- overall histopathology score [15, 19]: significant reduction
- macroscopically evaluated lung consolidation ([15]; low dose: 35 mg/kg SC twice daily, Day 6): significant improvement
- survival until day 6 ([15]; lower dose: 35 mg/kg SC twice daily, Day -1 to Day 6): 90%
- MMP9 concentrations in lung homogenate ([16]; 10 mg/kg SC): did not alter
- reduction of MMP9 levels in lung homogenate ([16]; 30 mg/kg SC): 26%
- reduction of MMP9 levels in lung homogenate ([16]; 100 mg/kg SC): 53%
- reduction of IL-1β level in lung homogenate ([16]; 100 mg/kg SC pre-treatment): 24%
- CXCL1 level in lung homogenate [16, 20]: significantly reduced
- CXCL2 level in lung homogenate [16, 20]: significantly reduced
- reduction of IL-6 level in lung homogenate [16, 21]: ≥ 50%
- reduction of TNF-α level in lung homogenate [16, 21]: ≥ 50%
- GM-CSF in lung homogenate ([16]; all doses tested (10, 30, 100 mg/kg SC)): almost completely inhibited
- LPS-induced CCL2 increase in the lung homogenate ([16]; all investigated doses (10, 30, 100 mg/kg SC), Valnemulin particularly at 10 and 30 mg/kg): completely inhibited

Structure (SMILES): NC(=O)c1ncn([C@@H]2O[C@H](CO)[C@@H](O)[C@H]2O)n1 [Ribavirin, reference compound]
- TC50 (HeLa cells): 21.6 µg/mL (≈ 88.4 µM)
- EC50 ([6]; MOI 0.001): 4.73 µg/mL
- EC50 ([8]; HeLa cells, 4 h pre-incubation, MOI 0.008): 1.88 µg/mL
- TC50 (Huh7 cells): 48.5 µg/mL (≈ 199 µM)
